The target in the assay is Mitogen-activated protein kinase kinase kinase 11 (Homo sapiens, UniProt Q16584). Description: Radiometric Filter Plate MLK3 Assay: 200 ng (130 nM) MLK3 (Dundee, DU8313) was incubated with 1 μM inactive MKK7b (Dundee, DU703) in the presence of 2 μM cold ATP (Km) and 0.5 μCi/assay 33P ATP and appropriate concentrations of compounds. After a twenty minute incubation, the reactions were washed through filter plates and read on a scintillation counter.
Sequence of Mitogen-activated protein kinase kinase kinase 11 (Q16584 whole entry): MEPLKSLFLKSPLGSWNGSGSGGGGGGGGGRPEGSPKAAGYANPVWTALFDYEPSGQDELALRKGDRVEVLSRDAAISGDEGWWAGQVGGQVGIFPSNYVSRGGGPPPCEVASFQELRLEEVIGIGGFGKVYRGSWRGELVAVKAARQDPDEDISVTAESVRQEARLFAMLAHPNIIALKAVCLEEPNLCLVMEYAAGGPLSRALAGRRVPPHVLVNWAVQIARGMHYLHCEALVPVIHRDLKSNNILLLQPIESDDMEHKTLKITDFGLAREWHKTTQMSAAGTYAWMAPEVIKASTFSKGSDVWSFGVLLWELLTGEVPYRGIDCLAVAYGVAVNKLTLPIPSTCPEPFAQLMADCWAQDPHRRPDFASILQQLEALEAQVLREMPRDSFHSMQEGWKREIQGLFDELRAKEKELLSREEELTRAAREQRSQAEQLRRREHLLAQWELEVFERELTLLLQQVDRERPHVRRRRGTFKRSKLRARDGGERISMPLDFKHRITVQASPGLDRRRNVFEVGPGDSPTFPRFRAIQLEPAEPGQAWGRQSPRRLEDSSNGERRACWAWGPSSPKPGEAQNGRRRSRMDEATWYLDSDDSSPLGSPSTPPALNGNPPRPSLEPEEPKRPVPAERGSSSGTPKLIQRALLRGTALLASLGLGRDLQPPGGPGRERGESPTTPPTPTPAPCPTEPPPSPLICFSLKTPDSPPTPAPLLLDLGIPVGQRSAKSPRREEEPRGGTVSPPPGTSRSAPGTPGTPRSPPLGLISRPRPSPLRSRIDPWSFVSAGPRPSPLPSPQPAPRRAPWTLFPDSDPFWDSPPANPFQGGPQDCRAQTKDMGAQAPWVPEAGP

`c1cn(Cc2ccc(-c3cnc4[nH]cc(-c5ccc6[nH]ccc6c5)c4c3)cc2)cn1`: the IC50 (as a rule, the concentration at which inhibition is half-maximal) was under 0.1 µM.
Then `CN1CCN(Cc2ccc(-c3cnc4[nH]cc(-c5cnc6[nH]ccc6c5)c4c3)cc2)CC1`, with under 0.1 µM.

The values are drawn from ChEMBL document CHEMBL5727401, “Mixed lineage kinase inhibitors for HIV/AIDS therapies” (2019).
